Data from PubChem BioAssay AID2060504 (Molecular Pharmacology Branch, DTP, NCI, 2025).

Test system: 636577-100-R-J1-PDC complex spheroid viability
Assay: Anticancer human tumor 636577-100-R-J1-PDC patient-derived endometrial adenocarcinoma cell line growth inhibition [GQUAD]
Conditions: for IC50: curve of first compound; for viability, T/C: stronger effect = lower value
Procedure, shortened: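 Multi-cell-type spheroids of tumor cells with HUVEC and mesenchymal stem cells, treated with drug combinations. Concentrations descend in half-log steps from near clinical Cmax, or from 10 microM where Cmax is unknown; viability read-out.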

[1] = second compound 0.0316 µM, first compound 0.0316 µM
[2] = second compound 0.0316 µM, first compound 0.1 µM
[3] = second compound 0.0316 µM, first compound 0.316 µM
[4] = second compound 0.0316 µM, first compound 1 µM
[5] = second compound 0.0316 µM, first compound 3.16 µM
[6] = second compound 0.0316 µM, first compound 10 µM
[7] = second compound 0.1 µM, first compound 0.0316 µM
[8] = second compound 0.1 µM, first compound 0.1 µM
[9] = second compound 0.1 µM, first compound 0.316 µM
[10] = second compound 0.1 µM, first compound 1 µM
[11] = second compound 0.1 µM, first compound 3.16 µM
[12] = second compound 0.1 µM, first compound 10 µM
[13] = second compound 0.316 µM, first compound 0.0316 µM
[14] = second compound 0.316 µM, first compound 0.1 µM
[15] = second compound 0.316 µM, first compound 0.316 µM
[16] = second compound 0.316 µM, first compound 1 µM
[17] = second compound 0.316 µM, first compound 3.16 µM
[18] = second compound 0.316 µM, first compound 10 µM
[19] = second compound 1 µM, first compound 0.0316 µM
[20] = second compound 1 µM, first compound 0.1 µM
[21] = second compound 1 µM, first compound 0.316 µM
[22] = second compound 1 µM, first compound 1 µM
[23] = second compound 1 µM, first compound 3.16 µM
[24] = second compound 1 µM, first compound 10 µM
[25] = second compound 3.16 µM, first compound 0.0316 µM
[26] = second compound 3.16 µM, first compound 0.1 µM
[27] = second compound 3.16 µM, first compound 0.316 µM
[28] = second compound 3.16 µM, first compound 1 µM
[29] = second compound 3.16 µM, first compound 3.16 µM
[30] = second compound 3.16 µM, first compound 10 µM
[31] = second compound 10 µM, first compound 0.0316 µM
[32] = second compound 10 µM, first compound 0.1 µM
[33] = second compound 10 µM, first compound 0.316 µM
[34] = second compound 10 µM, first compound 1 µM
[35] = second compound 10 µM, first compound 3.16 µM
[36] = second compound 10 µM, first compound 10 µM
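Also: viability read after seven days of drug exposure.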
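For viability, T/C in this document: luminescence signal used as a proxy for viable cells; 100% = DMSO vehicle control wells.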

Q: For `O=C(c1cc(Cc2n[nH]c(=O)c3ccccc23)ccc1F)N1CCN(C(=O)C2CC2)CC1` + CN(C)c1ccc(Nc2c3ccc(NC(=O)CCN4CCCC4)cc3nc3cc(NC(=O)CCN4CCCC4)ccc23)cc1, which IC50 (second compound 0.0316 µM) is on record?
A: 1580 nM

Q: What about the IC50 (second compound 0.1 µM) of the same compound?
A: 1450 nM

Q: And the IC50 (second compound 0.316 µM)?
A: 3730 nM

Q: And the IC50 (second compound 1 µM)?
A: 1360 nM

Q: And the IC50 (second compound 3.16 µM)?
A: < 31.6 nM

Q: And the IC50 (second compound 10 µM)?
A: < 31.6 nM

Q: And the viability, T/C [1]?
A: 93.1%

Q: What about the viability, T/C [2] of the same compound?
A: 54.9%

Q: What about the viability, T/C [3] of the same compound?
A: 71%

Q: And the viability, T/C [4]?
A: 63.8%

Q: And the viability, T/C [5]?
A: 37.7%

Q: And the viability, T/C [6]?
A: 33.2%

Q: And the viability, T/C [7]?
A: 69.7%

Q: What about the viability, T/C [8] of the same compound?
A: 54.2%

Q: And the viability, T/C [9]?
A: 52.1%

Q: What about the viability, T/C [10] of the same compound?
A: 57.7%

Q: And the viability, T/C [11]?
A: 46.2%

Q: And the viability, T/C [12]?
A: 31.7%

Q: And the viability, T/C [13]?
A: 50.3%

Q: What about the viability, T/C [14] of the same compound?
A: 53.6%

Q: And the viability, T/C [15]?
A: 64.3%

Q: And the viability, T/C [16]?
A: 61.5%

Q: What about the viability, T/C [17] of the same compound?
A: 50.1%

Q: And the viability, T/C [18]?
A: 34.1%

Q: And the viability, T/C [19]?
A: 63.7%

Q: And the viability, T/C [20]?
A: 62.4%

Q: What about the viability, T/C [21] of the same compound?
A: 60.5%

Q: And the viability, T/C [22]?
A: 54.3%

Q: And the viability, T/C [23]?
A: 38.9%

Q: And the viability, T/C [24]?
A: 28.8%

Q: And the viability, T/C [25]?
A: 29.2%

Q: And the viability, T/C [26]?
A: 40.2%

Q: What about the viability, T/C [27] of the same compound?
A: 34.2%

Q: And the viability, T/C [28]?
A: 30.8%

Q: What about the viability, T/C [29] of the same compound?
A: 25.6%

Q: What about the viability, T/C [30] of the same compound?
A: 21.1%

Q: What about the viability, T/C [31] of the same compound?
A: 5.92%

Q: And the viability, T/C [32]?
A: 4.61%

Q: What about the viability, T/C [33] of the same compound?
A: 4.06%

Q: What about the viability, T/C [34] of the same compound?
A: 5.25%

Q: And the viability, T/C [35]?
A: 6.06%

Q: What about the viability, T/C [36] of the same compound?
A: 4.36%

Q: `Cn1ncnc1[C@H]1c2n[nH]c(=O)c3cc(F)cc(c23)N[C@@H]1c1ccc(F)cc1` + Cc1[nH]c2ccc(F)cc2c1-c1nc2c3cccnc3c3ncccc3c2[nH]1 was tested. Which IC50 (second compound 0.0316 µM) did it give?
A: 29.3 nM

Q: What about the IC50 (second compound 0.1 µM) of the same compound?
A: 77.7 nM

Q: And the IC50 (second compound 0.316 µM)?
A: 34.5 nM

Q: What about the IC50 (second compound 1 µM) of the same compound?
A: 82.7 nM

Q: What about the IC50 (second compound 3.16 µM) of the same compound?
A: < 0.999 nM

Q: And the IC50 (second compound 10 µM)?
A: 86.6 nM

Q: What about the viability, T/C (second compound 0.0316 µM, first compound 0.000999 µM) of the same compound?
A: 49.4%

Q: And the viability, T/C (second compound 0.0316 µM, first compound 0.00316 µM)?
A: 88%

Q: What about the viability, T/C (second compound 0.0316 µM, first compound 0.00999 µM) of the same compound?
A: 94.7%

Q: And the viability, T/C [1]?
A: 48%

Q: What about the viability, T/C (second compound 0.0316 µM, first compound 0.0999 µM) of the same compound?
A: 46.8%

Q: And the viability, T/C [3]?
A: 39.2%

Q: And the viability, T/C (second compound 0.1 µM, first compound 0.000999 µM)?
A: 82.3%

Q: And the viability, T/C (second compound 0.1 µM, first compound 0.00316 µM)?
A: 110%

Q: And the viability, T/C (second compound 0.1 µM, first compound 0.00999 µM)?
A: 85%

Q: What about the viability, T/C [7] of the same compound?
A: 59%

Q: What about the viability, T/C (second compound 0.1 µM, first compound 0.0999 µM) of the same compound?
A: 54.2%

Q: And the viability, T/C [9]?
A: 30.8%

Q: And the viability, T/C (second compound 0.316 µM, first compound 0.000999 µM)?
A: 64.6%

Q: And the viability, T/C (second compound 0.316 µM, first compound 0.00316 µM)?
A: 102%

Q: What about the viability, T/C (second compound 0.316 µM, first compound 0.00999 µM) of the same compound?
A: 68.7%

Q: What about the viability, T/C [13] of the same compound?
A: 51.8%

Q: What about the viability, T/C (second compound 0.316 µM, first compound 0.0999 µM) of the same compound?
A: 50.9%

Q: What about the viability, T/C [15] of the same compound?
A: 35.7%

Q: What about the viability, T/C (second compound 1 µM, first compound 0.000999 µM) of the same compound?
A: 35.3%

Q: And the viability, T/C (second compound 1 µM, first compound 0.00316 µM)?
A: 76.3%

Q: What about the viability, T/C (second compound 1 µM, first compound 0.00999 µM) of the same compound?
A: 63.1%

Q: And the viability, T/C [19]?
A: 68.7%

Q: What about the viability, T/C (second compound 1 µM, first compound 0.0999 µM) of the same compound?
A: 47.9%

Q: And the viability, T/C [21]?
A: 38.4%

Q: What about the viability, T/C (second compound 3.16 µM, first compound 0.000999 µM) of the same compound?
A: 36%

Q: And the viability, T/C (second compound 3.16 µM, first compound 0.00316 µM)?
A: 36.9%

Q: What about the viability, T/C (second compound 3.16 µM, first compound 0.00999 µM) of the same compound?
A: 43.2%

Q: What about the viability, T/C [25] of the same compound?
A: 37.5%

Q: And the viability, T/C (second compound 3.16 µM, first compound 0.0999 µM)?
A: 35.5%

Q: What about the viability, T/C [27] of the same compound?
A: 25.3%

Q: What about the viability, T/C (second compound 10 µM, first compound 0.000999 µM) of the same compound?
A: 62.5%

Q: And the viability, T/C (second compound 10 µM, first compound 0.00316 µM)?
A: 47%

Q: What about the viability, T/C (second compound 10 µM, first compound 0.00999 µM) of the same compound?
A: 62.2%

Q: And the viability, T/C [31]?
A: 57.9%

Q: What about the viability, T/C (second compound 10 µM, first compound 0.0999 µM) of the same compound?
A: 46.5%

Q: And the viability, T/C [33]?
A: 36.4%

Q: How did the IC50 (second compound 0.0316 µM) turn out when `CCCS(=O)(=O)Nc1ccc(F)c(C(=O)c2c[nH]c3ncc(-c4ccc(Cl)cc4)cc23)c1F` + Cc1[nH]c2ccc(F)cc2c1-c1nc2c3cccnc3c3ncccc3c2[nH]1 was run?
A: > 10000 nM

Q: And the IC50 (second compound 0.1 µM)?
A: 5370 nM

Q: What about the IC50 (second compound 0.316 µM) of the same compound?
A: 7080 nM

Q: What about the IC50 (second compound 1 µM) of the same compound?
A: 7150 nM

Q: And the IC50 (second compound 3.16 µM)?
A: < 31.6 nM

Q: What about the IC50 (second compound 10 µM) of the same compound?
A: < 31.6 nM

Q: And the viability, T/C [1]?
A: 98.2%

Q: And the viability, T/C [2]?
A: 87.4%

Q: And the viability, T/C [3]?
A: 116%

Q: What about the viability, T/C [4] of the same compound?
A: 56.9%

Q: And the viability, T/C [5]?
A: 73.5%

Q: And the viability, T/C [6]?
A: 43.6%

Q: And the viability, T/C [7]?
A: 101%

Q: And the viability, T/C [8]?
A: 69.4%

Q: What about the viability, T/C [9] of the same compound?
A: 104%

Q: What about the viability, T/C [10] of the same compound?
A: 58.7%

Q: And the viability, T/C [11]?
A: 66.3%

Q: What about the viability, T/C [12] of the same compound?
A: 37.3%

Q: And the viability, T/C [13]?
A: 94.2%

Q: And the viability, T/C [14]?
A: 79.6%

Q: What about the viability, T/C [15] of the same compound?
A: 81.2%

Q: And the viability, T/C [16]?
A: 89.6%

Q: What about the viability, T/C [17] of the same compound?
A: 80.4%

Q: And the viability, T/C [18]?
A: 36.7%

Q: What about the viability, T/C [19] of the same compound?
A: 87.4%

Q: And the viability, T/C [20]?
A: 83.1%

Q: And the viability, T/C [21]?
A: 63.9%

Q: What about the viability, T/C [22] of the same compound?
A: 82.9%

Q: And the viability, T/C [23]?
A: 69.4%

Q: What about the viability, T/C [24] of the same compound?
A: 41.6%

Q: And the viability, T/C [25]?
A: 28%

Q: And the viability, T/C [26]?
A: 25.4%

Q: What about the viability, T/C [27] of the same compound?
A: 31.2%

Q: And the viability, T/C [28]?
A: 32.5%

Q: And the viability, T/C [29]?
A: 31.9%

Q: What about the viability, T/C [30] of the same compound?
A: 20.4%

Q: What about the viability, T/C [31] of the same compound?
A: 40.2%

Q: And the viability, T/C [32]?
A: 49.2%

Q: What about the viability, T/C [33] of the same compound?
A: 48.7%

Q: And the viability, T/C [34]?
A: 45.1%

Q: What about the viability, T/C [35] of the same compound?
A: 43.5%

Q: And the viability, T/C [36]?
A: 28.3%
